According to paper PMC4401630 (Clinical cancer research : an official journal of the …, 2015):
“And” between values parts separate entries of the source, which are not always exact repeats. Equal values may be shown once.

What was measured:
[1] = test system: resectable non-small cell lung cancer (NSCLC); test: Metabolic response on paired 18F-FDG PET/CT; type: in vivo, human; details: for Change in metabolic activity (SUVmax): up to 28 days, control 29.0%; for Change in metabolic activity (SUVmax) / Mean reduction in SUVmax (percent change of initial SUVmax): p=0.014; for Mean reduction in SUVmax (percent change of initial SUVmax): control mean increase of 29%
[2] = test system: resectable non-small cell lung cancer (NSCLC); test: Anatomic response, tumor size; type: in vivo, human
[3] = test system: S6; test: Immunohistochemistry of paired tumor tissues; type: in vivo, human; details: mean (±SD)
[4] = test system: phospho-S6 Ser235/236 (pS6); test: Immunohistochemistry of paired tumor tissues; type: in vivo, human; details: mean (±SD)
[5] = test system: pS6/S6; test: Immunohistochemistry of paired tumor tissues; type: in vivo, human; details: mean (±SD)
[6] = test system: phospho-mTOR Ser2448 (pMTOR); test: Immunohistochemistry of paired tumor tissues; type: in vivo, human; details: mean (±SD)
[7] = test system: phospho-4E-BP1 Thr37/46 (p4E-BP1); test: Immunohistochemistry of paired tumor tissues; type: in vivo, human; details: mean (±SD)
[8] = test system: p70S6K; test: Immunohistochemistry of paired tumor tissues; type: in vivo, human; details: mean (±SD)
[9] = test system: phospho-eIF4E Ser209 (pe1f4e); test: Immunohistochemistry of paired tumor tissues; type: in vivo, human; details: mean (±SD)
[10] = test system: phospho-Akt Ser473 (pAKT); test: Immunohistochemistry of tumor tissues; type: in vivo, human
[11] = Safety: treatment-emergent adverse events; type: in vivo, human
[12] = test system: BCL2L-11 gene; test: Gene expression profiling by RNA-Seq, baseline vs post-treatment tumor; type: in vivo, human; details: responder with sarcomatoid NSCLC, 10mg everolimus
[13] = test system: Bim; test: Immunohistochemistry of tumor tissues; details: for BIM expression immunoscore in post-treatment samples: control 48.6
[14] = Everolimus pharmacokinetic analysis in whole blood; details: for Tmax: NSCLC patients
[15] = dose of everolimus 5, listed as Everolimus
[16] = dose of everolimus 10, listed as Everolimus
[17] = dose of everolimus 10, mean (±SD)
[18] = human, whole blood, oral, 10 mg

CO[C@H]1C[C@@H]2CC[C@@H](C)[C@@](O)(O2)C(=O)C(=O)N2CCCC[C@H]2C(=O)O[C@H]([C@H](C)C[C@@H]2CC[C@@H](OCCO)[C@H](OC)C2)CC(=O)[C@H](C)/C=C(\C)[C@@H](O)[C@@H](OC)C(=O)[C@H](C)C[C@H](C)/C=C/C=C/C=C/1C [everolimus]
Change in metabolic activity (SUVmax) ([1]; 5mg cohort): −21% | Partial metabolic response (PMR) rate, PERCIST ([1]; 5mg everolimus group): 36% | Stable metabolic disease (SMD) rate, PERCIST ([1]; 5mg everolimus group): 64% | Change in metabolic activity (SUVmax) ([1]; 10mg cohort): −24% | Partial metabolic response (PMR) rate, PERCIST ([1]; 10mg everolimus group): 50% | Stable metabolic disease (SMD) rate, PERCIST ([1]; 10mg everolimus group): 50% | Reduction in mean metabolic activity, RAS mutant tumors ([1]; RAS mutant tumors treated with everolimus (10mg), control 88% increase, p=0.218): 30% | Mean reduction in SUVmax (percent change of initial SUVmax) ([1]; everolimus 5mg): 21% | Mean reduction in SUVmax (percent change of initial SUVmax) ([1]; everolimus 10mg): 24% | Reduction in metabolic activity, non-RAS mutant tumors ([1]; everolimus (10mg) group, control 12% increase, p=0.039): 21% | Reduction in SUVmax, single patient (near complete metabolic response) ([1]; one patient, sarcomatoid NSCLC, 10mg everolimus for 3 weeks): 74% | Patients achieving SD (RECIST) ([2]; 5mg everolimus): 82% | Patients with best response of PD (RECIST) ([2]; 5mg everolimus): 18% | Change in tumor size ([2]; 10mg cohort, control 10.1%, p=0.047): −11.6% | Patients meeting RECIST criteria for partial response ([2]; 10mg everolimus group): 9% | Patients with SD (RECIST) ([2]; 10mg everolimus group): 91% | Tumor shrinkage in partial response ([2]; 10mg everolimus group, partial response): 30% | S6 percent change in immunoscore, post-treatment relative to baseline ([3]; dose of everolimus 5): −13.7% | S6 percent change in immunoscore, post-treatment relative to baseline [3, 15]: −13.69 (± 144.05) % | S6 percent change in immunoscore, post-treatment relative to baseline ([3]; dose of everolimus 10): −77.0% and −77.03% | S6 percent change in immunoscore, post-treatment relative to baseline [3, 16]: −77.03 (± 16.02) % | pS6 percent change in immunoscore, post-treatment relative to baseline ([4]; dose of everolimus 5): −61.57% | pS6 percent change in immunoscore, post-treatment relative to baseline [4, 15]: −61.57 (± 35.8) % | pS6 percent change in immunoscore, post-treatment relative to baseline ([4]; dose of everolimus 10): −47.21% | pS6 percent change in immunoscore, post-treatment relative to baseline [4, 16]: −47.21 (± 44.96) % | pS6/S6 percent change, post-treatment relative to baseline ([5]; dose of everolimus 5): −100 (±NA) % | pS6/S6 percent change, post-treatment relative to baseline ([5]; dose of everolimus 10): 128.57 (± 219.26) % | pMTOR percent change in immunoscore, post-treatment relative to baseline ([6]; dose of everolimus 5): 30 (± 153.95) % | pMTOR percent change in immunoscore, post-treatment relative to baseline ([6]; dose of everolimus 10): −63.82 (± 51.3) % | p4E-BP1 percent change in immunoscore, post-treatment relative to baseline ([7]; dose of everolimus 5): 150 (±NA) % | p4E-BP1 percent change in immunoscore, post-treatment relative to baseline ([7]; dose of everolimus 10): −78.75 (± 14.36) % | p70s6k percent change in immunoscore, post-treatment relative to baseline ([8]; dose of everolimus 5): 137.14 (± 442.07) % | p70s6k percent change in immunoscore, post-treatment relative to baseline ([8]; dose of everolimus 10): −78.62 (± 22.79) % | pe1f4e percent change in immunoscore, post-treatment relative to baseline ([9]; dose of everolimus 5): 2.78 (± 5.56) % | pe1f4e percent change in immunoscore, post-treatment relative to baseline ([9]; dose of everolimus 10): −27.13 (± 42.17) % | Unmatched mean immunoscore, nuclear pAKT staining, post-treatment ([10]; 5 mg cohort, baseline 0.3): 15 | Unmatched mean immunoscore, cytoplasmic pAKT staining, post-treatment ([10]; 5 mg cohort, baseline 13.1): 47.5 | Unmatched mean immunoscore, nuclear pAKT staining, post-treatment ([10]; 10 mg cohort, baseline 0.01): 4.4 | Unmatched mean immunoscore, cytoplasmic pAKT staining, post-treatment ([10]; 10 mg cohort, baseline 0.42): 2.34 | PAKT Nuclear percent change in immunoscore, post-treatment relative to baseline [10, 17]: 0 (± 0) % | MRSA Bacteremia, Grade 3 ([11]; CTCAE version 3, patients treated with everolimus (5 or 10 mg daily)): 1 | Median length of hospital stay (LOS) after resection ([11]; in vivo): 5 days | Range of length of hospital stay (LOS) after resection ([11]; in vivo): 3 to 43 days | Increase in BCL2L-11 gene (BIM) expression, post-treatment vs baseline sample [12]: 6 fold | BIM expression immunoscore in post-treatment samples ([13]; 5mg everolimus): 84.3 | BIM expression immunoscore in post-treatment samples ([13]; 10mg everolimus): 80.5 | Bim percent change in immunoscore, post-treatment relative to baseline [13, 17]: −21.76 (± 60.07) % | BIM expression immunoscore, treated compared to control patients ([13]; post-treatment samples, treated patients vs control): ~2 fold | Tmax ([14]; 5 mg daily (n=12), whole blood): 2 (1 – 2) hr. | Day 21 Cmax ([14]; 10 mg daily (n=7), whole blood): 51.5 ± 9.9 ng/mL | Tmax ([14]; 10 mg daily (n=7), whole blood): 2 (1 – 2) hr. | Accumulation ([14]; at either dose level (5mg, 10mg), days 8 and 21 vs day 1): no significant accumulation | concentration at 8 day ([14]; human, whole blood, oral, 5 mg): 6.3 ± 2.9 ng/mL | concentration at 21 day ([14]; human, whole blood, oral, 5 mg): 5.7 ± 2.3 ng/mL | half-life ([14]; human, whole blood, oral, 5 mg): 26.5 h | Cmax ([14]; human, whole blood, oral, 5 mg, Day 1 Cmax, 5 mg daily (n=12), whole blood): 29.2 ± 9.9 ng/mL | Cmax ([14]; human, whole blood, oral, 5 mg, Day 8 Cmax, 5 mg daily (n=12), whole blood): 42.1 ± 17.2 ng/mL | AUC(0-t) ([14]; human, whole blood, oral, 5 mg, Day 21 AUC0-24, 5 mg daily (n=12), whole blood): 205 ± 87.4 ng·h/mL | concentration at 8 day [14, 18]: 17.8 ± 7.6 ng/mL | concentration at 21 day [14, 18]: 13.7 ± 9.2 ng/mL | AUC(0-t) ([14]; human, whole blood, oral, 10 mg, Day 8 AUC0-24, 10 mg daily (n=7), whole blood): 579 ± 186 ng·h/mL | AUC(0-t) ([14]; human, whole blood, oral, 10 mg, Day 21 AUC0-24, 10 mg daily (n=7), whole blood): 506 ± 208 ng·h/mL
